Calls of active or inactive are those of the source. No cut-off for these calls is given here.
Experiments:
Rattus norvegicus [1] = assay: The compound was tested peroral dose of 40 mg/kg for 1 hour for rotarod toxicity; 0/4; format: functional; settings: route oral
Sigma 2 receptor = assay: Affinity on sigma 2 receptor using [3H]- DTG as radioligand
[2] = The compound was tested for neurologic toxicity (rotarod) test for 30 min in mice; active at 300 mg/kg; format: organism-based; design: dose 300 mg/kg; settings: mouse, in vivo, 0.5 h
Rattus norvegicus [3] = assay: The compound was tested peroral dose of 40 mg/kg for 0.25 hours for maximal electroshock test on rats; MES= 3/4; format: functional; settings: route oral
Rattus norvegicus [4] = assay: The compound was tested peroral dose of 40 mg/kg for 4 hours for maximal electroshock test on rats; MES= 0/4; format: functional; settings: route oral
[5] = The compound was tested for time of peak effect (TPE) in hours for its toxicity in mice on ip administration.; format: organism-based; settings: mouse, in vivo
Mus musculus [6] = assay: The compound was tested for anticonvulsant activity in Maximal electroshock seizure test for 30 min in mice(ip); active at 30 mg/kg; format: functional, organism-based; design: dose 30 mg/kg
Mus musculus [7] = assay: Inhibition of s.c. pentylenetetrazole induced seizure in mice following i.p. administration.; format: functional
Mus musculus [8] = assay: The compound was tested for anticonvulsant activity in Maximal electroshock seizure test (MES) for 4 hr in mice(ip); active at 300 mg/kg; format: functional, organism-based; design: dose 300 mg/kg
Rattus norvegicus [9] = assay: The compound was tested peroral dose of 40 mg/kg for 0.5 hours for rotarod toxicity; 0/4; format: functional; settings: route oral
Rattus norvegicus [10] = assay: The compound was tested for the effective oral dose to inhibit 50% of the anticonvulsant in rats; format: functional
Rattus norvegicus [11] = assay: The compound was tested peroral dose of 40 mg/kg for 2 hours for rotarod toxicity; 0/4; format: functional; settings: route oral
Mus musculus [12] = assay: The anticonvulsant activity in subcutaneous pentylenetetrazole seizure test (sc Met) for 4 hr in mice; no activity or no toxicity at 300 mg/kg; format: functional, organism-based; design: dose 300 mg/kg
Mus musculus [13] = assay: The compound was tested to inhibit 50% of induced maximal electroshock seizure in mice on ip administration.; format: functional
Rattus norvegicus [14] = assay: The compound was tested peroral dose of 40 mg/kg for 4 hours for rotarod toxicity; 0/4; format: functional; settings: route oral
Rattus norvegicus [15] = assay: The compound was tested peroral dose of 40 mg/kg for 0.5 hours for maximal electroshock test on rats; MES= 3/4; format: functional; settings: route oral
Mus musculus [16] = assay: Time of peak effect in mice following i.p. administration.; format: functional
Rattus norvegicus [17] = assay: The compound was tested peroral dose of 40 mg/kg for 1 hour for maximal electroshock test on rats; MES= 1/4; format: functional; settings: route oral
[18] = The compound was determined for the dose (mg/kg) by rotarod test at the time of peak neurotoxic effect in mice on ip administration.; format: ADME, organism-based; settings: mouse, in vivo
[19] = The compound was tested for neurologic toxicity (rotarod) test for 4 hours in mice; no activity or no toxicity at 300 mg/kg; format: organism-based; design: dose 300 mg/kg; settings: mouse, in vivo
Mus musculus [20] = assay: Anticonvulsant activity in subcutaneous pentylenetetrazole seizure test for 30 min in mice; No activity/toxicity at 300 mg/kg.; format: functional, organism-based; design: dose 300 mg/kg
[21] = target: Sigma non-opioid intracellular receptor 1 (Homo sapiens) (UniProt Q99720); assay: Ratio between the Ki(nM)values of sigma-2 and sigma-1; format: functional
[22] = (§1) The compound was tested for the toxic dose on oral administration.; format: ADME; settings: rat
Rattus norvegicus [23] = assay: The compound was tested peroral dose of 40 mg/kg for 0.25 hours for rotarod toxicity; 0/4; format: functional; settings: route oral
Rattus norvegicus [24] = assay: The compound was tested peroral dose of 40 mg/kg for 2 hours for maximal electroshock test on rats; MES= 1/4; format: functional; settings: route oral
Rattus norvegicus [25] = species on record: Rattus norvegicus; assay: (§2) Protective index value is the ratio between ED50 and TD50; format: functional
Rattus norvegicus [26] = assay: The compound was tested peroral dose of 25 mg/kg for 4 hours for rotarod toxicity; 0/4; format: functional; settings: route oral
Rattus norvegicus [27] = assay: The compound was tested per os dose of 25 mg/kg for 0.5 hours for maximal electroshock test on rats; MES= 3/4; format: functional
Mus musculus [28] = assay: The compound was tested to inhibit 50% of induced maximal electroshock seizure in mice on ip administration; format: functional
[29] = as §2; format: functional
Rattus norvegicus [30] = assay: The compound was tested per os dose of 30 mg/kg for 0.25 hours for maximal electroshock test on rats; MES= 0/4; format: functional
[31] = The compound was tested for neurologic toxicity (rotarod) test for 4 hours in mice; active at 300 mg/kg; format: organism-based; design: dose 300 mg/kg; settings: mouse, in vivo
Mus musculus [32] = assay: The compound was tested for anticonvulsant activity in Maximal electroshock seizure test (MES) for 4 hr in mice(ip); active at 100 mg/kg; format: functional, organism-based; design: dose 100 mg/kg
Rattus norvegicus [33] = assay: The compound was tested per os dose of 25 mg/kg for 2 hours for maximal electroshock test on rats; MES= 2/4; format: functional
[34] = The compound was tested for neurologic toxicity (rotarod) test for 30 min in mice; active at 100 mg/kg; format: organism-based; design: dose 100 mg/kg; settings: mouse, in vivo, 0.5 h
Mus musculus [35] = assay: The compound was tested for anticonvulsant activity in subcutaneous pentylenetetrazole seizure test (sc Met) for 30 min in mice; active at 100 mg/kg; format: functional, organism-based; design: dose 100 mg/kg
Mus musculus [36] = assay: The compound was tested for anticonvulsant activity in subcutaneous pentylenetetrazole seizure test (sc Met) for 4 hr in mice; active at 300 mg/kg; format: functional, organism-based; design: dose 300 mg/kg
Rattus norvegicus [37] = assay: The compound was tested peroral dose of 25 mg/kg for 0.5 hours for rotarod toxicity; 0/4; format: functional; settings: route oral
Rattus norvegicus [38] = assay: The compound was tested for the effective oral dose to inhibit 50% of the anticonvulsant in rats.(Value in parenthesis indicate 95% confidence limits).; format: functional
Rattus norvegicus [39] = assay: The compound was tested peroral dose of 25 mg/kg for 2 hours for rotarod toxicity; 0/4; format: functional; settings: route oral
Mus musculus [40] = assay: Anticonvulsant activity in Maximal electroshock seizure test at 100 mg/kg i.p. in mice.; format: functional, organism-based; design: dose 100 mg/kg
Rattus norvegicus [41] = assay: The compound was tested per os dose of 25 mg/kg for 1 hour for maximal electroshock test on rats; MES= 3/4; format: functional
Rattus norvegicus [42] = assay: as §1; format: functional
Rattus norvegicus [43] = assay: The compound was tested peroral dose of 25 mg/kg for 0.25 hours for rotarod toxicity; 0/4; format: functional; settings: route oral
Rattus norvegicus [44] = assay: The compound was tested per os dose of 25 mg/kg for 4 hours for maximal electroshock test on rats; MES= 2/4; format: functional
Rattus norvegicus [45] = assay: The compound was tested peroral dose of 25 mg/kg for 1 hour for rotarod toxicity; 0/4; format: functional; settings: route oral
Rattus norvegicus [46] = assay: The compound was tested for the toxic dose on oral administration; format: functional
Mus musculus [47] = assay: The compound was tested to inhibit 50% of induced subcutaneous pentylenetetrazole seizure in mice on ip administration; format: functional

Sigma non-opioid intracellular receptor 1 (Homo sapiens), sequence (Q99720 whole entry): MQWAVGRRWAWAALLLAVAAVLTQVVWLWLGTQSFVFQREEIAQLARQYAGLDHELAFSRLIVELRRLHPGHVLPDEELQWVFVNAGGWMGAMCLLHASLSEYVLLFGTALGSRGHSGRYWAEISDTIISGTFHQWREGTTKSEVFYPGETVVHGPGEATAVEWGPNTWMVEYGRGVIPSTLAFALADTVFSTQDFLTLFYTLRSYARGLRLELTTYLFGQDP

Question: For `CCC(=O)c1ccc2c(c1)sc(=O)n2CCN1CCCCC1`, which “No. of animals exhibiting toxicity / Number of animals tested” value (Rattus norvegicus [1]) is on record?
Answer: The value was 0.

Question: And the Ki (Sigma 2 receptor)?
Answer: Its Ki is 481 nM.

Question: What about the Rotarod toxicity [2] of the same molecule?
Answer: Its Rotarod toxicity is “active at 300 mg/kg”.

Question: And the Protected/Tested (Rattus norvegicus [3])?
Answer: Its Protected/Tested is 3.

Question: And the Protected/Tested (Rattus norvegicus [4])?
Answer: Its Protected/Tested is 0.

Question: And the Toxicity [5]?
Answer: Its Toxicity is 0.25 h.

Question: And the MES (Mus musculus [6])?
Answer: Its MES is “active at 30 mg/kg”.

Question: What about the ED50 (Mus musculus [7]) of the same molecule?
Answer: Its ED50 is > 55 mg/kg.

Question: And the MES (Mus musculus [8])?
Answer: The MES was “active at 30 mg/kg”.

Question: What about the “No. of animals exhibiting toxicity / Number of animals tested” value (Rattus norvegicus [9]) of the same molecule?
Answer: Its value is 0.

Question: What about the ED50 (Rattus norvegicus [10]) of the same molecule?
Answer: Its ED50 is 27.2 mg/kg.

Question: And the “No. of animals exhibiting toxicity / Number of animals tested” value (Rattus norvegicus [11])?
Answer: The value was 0.

Question: And the scMet (Mus musculus [12])?
Answer: Its scMet is “No activity or no toxicity at 300 mg/kg”.

Question: And the ED50 (Mus musculus [13])?
Answer: Its ED50 is 8.7 mg/kg.

Question: What about the “No. of animals exhibiting toxicity / Number of animals tested” value (Rattus norvegicus [14]) of the same molecule?
Answer: Its value is 0.

Question: And the Protected/Tested (Rattus norvegicus [15])?
Answer: Its Protected/Tested is 3.

Question: What about the Activity (Mus musculus [16]) of the same molecule?
Answer: The Activity was 0.25 h.

Question: And the Protected/Tested (Rattus norvegicus [17])?
Answer: Its Protected/Tested is 1.

Question: And the TD50 [18]?
Answer: Its TD50 is 46.3 mg/kg.

Question: What about the Rotarod toxicity [19] of the same molecule?
Answer: The Rotarod toxicity was “active at 300 mg/kg”.

Question: What about the scMet (Mus musculus [20]) of the same molecule?
Answer: Its scMet is “No activity or no toxicity at 300 mg/kg”.

Question: What about the Ratio [21] of the same molecule?
Answer: The Ratio was 10.

Question: And the TD50 [22]?
Answer: Its TD50 is > 110 mg/kg.

Question: What about the “No. of animals exhibiting toxicity / Number of animals tested” value (Rattus norvegicus [23]) of the same molecule?
Answer: Its value is 0.

Question: And the Protected/Tested (Rattus norvegicus [24])?
Answer: Its Protected/Tested is 1.

Question: What about the PI (Rattus norvegicus [25]) of the same molecule?
Answer: Its PI is 4.

Question: For `Oc1nc2ccc(Cc3ccccc3)cc2o1`, which “No. of animals exhibiting toxicity / Number of animals tested” value (Rattus norvegicus [26]) is on record?
Answer: Its value is 0.

Question: And the Protected/Tested (Rattus norvegicus [27])?
Answer: Its Protected/Tested is 3.

Question: What about the Toxicity [5] of the same molecule?
Answer: The Toxicity was 1 h.

Question: And the ED50 (Mus musculus [28])?
Answer: The ED50 was 68.3 mg/kg.

Question: What about the ED50 (Mus musculus [7]) of the same molecule?
Answer: Its ED50 is 77.2 mg/kg.

Question: What about the PI [29] of the same molecule?
Answer: The PI was 21.7.

Question: What about the Protected/Tested (Rattus norvegicus [30]) of the same molecule?
Answer: The Protected/Tested was 0.

Question: What about the Rotarod toxicity [31] of the same molecule?
Answer: The Rotarod toxicity was “active at 100 mg/kg”.

Question: What about the MES (Mus musculus [32]) of the same molecule?
Answer: Its MES is “active at 100 mg/kg”.

Question: What about the Activity (Mus musculus [16]) of the same molecule?
Answer: The Activity was 0.5 h.

Question: What about the Protected/Tested (Rattus norvegicus [33]) of the same molecule?
Answer: The Protected/Tested was 2.

Question: What about the TD50 [18] of the same molecule?
Answer: The TD50 was 164 mg/kg.

Question: What about the Rotarod toxicity [34] of the same molecule?
Answer: The Rotarod toxicity was “active at 100 mg/kg”.

Question: What about the scMet (Mus musculus [35]) of the same molecule?
Answer: The scMet was “active at 100 mg/kg”.

Question: What about the scMet (Mus musculus [36]) of the same molecule?
Answer: Its scMet is “active at 100 mg/kg”.

Question: And the “No. of animals exhibiting toxicity / Number of animals tested” value (Rattus norvegicus [37])?
Answer: The value was 0.

Question: And the ED50 (Rattus norvegicus [38])?
Answer: Its ED50 is 23.1 mg/kg.

Question: And the “No. of animals exhibiting toxicity / Number of animals tested” value (Rattus norvegicus [39])?
Answer: The value was 0.

Question: What about the MES (Mus musculus [40]) of the same molecule?
Answer: Its MES is “active at 100 mg/kg”.

Question: What about the Protected/Tested (Rattus norvegicus [41]) of the same molecule?
Answer: Its Protected/Tested is 3.

Question: And the TD50 (Rattus norvegicus [42])?
Answer: Its TD50 is > 500 mg/kg.

Question: What about the “No. of animals exhibiting toxicity / Number of animals tested” value (Rattus norvegicus [43]) of the same molecule?
Answer: The value was 0.

Question: And the Protected/Tested (Rattus norvegicus [44])?
Answer: Its Protected/Tested is 2.

Question: And the “No. of animals exhibiting toxicity / Number of animals tested” value (Rattus norvegicus [45])?
Answer: The value was 0.

Question: Which TD50 (Rattus norvegicus [46]) does the source give for `O=C1NC(=O)C(c2ccccc2)(c2ccccc2)N1` [PHENYTOIN] here?
Answer: The TD50 was > 3000 mg/kg.

Question: And the ED50 (Mus musculus [47])?
Answer: Its ED50 is > 300 mg/kg.
